{"source": "paper PMC7156458", "about": "“Synthetic biology based construction of biological activity-related library of fungal decalin-containing diterpenoid pyrones” (Nature Communications, 2020)", "target": "Aβ42 (Homo sapiens, UniProt P05067)", "sequence (P05067 672-713)": "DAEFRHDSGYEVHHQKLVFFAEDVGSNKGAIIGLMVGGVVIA", "test": "Th-T (thioflavin-T) assay of Aβ42 aggregation", "type": "biochemical", "conditions": "for Th-T fluorescence of Aβ42 with compound, mean of three wells (Fig. 7a source data): concentration 50, unit not given", "data": [{"smiles": "C=C1CC[C@@H]2[C@](C)(CC[C@H]3O[C@H](C=C(C)C)C[C@@]23C)[C@@H]1Cc1c(OC)oc(CO)c(C)c1=O", "note": "[Compound 20]", "values": [{"measurement": "Th-T fluorescence of Aβ42 with compound, mean of three wells (Fig. 7a source data)", "setting": "time-course reading M143", "result": 2.125}, {"measurement": "Th-T fluorescence of Aβ42 with compound, mean of three wells (Fig. 7a source data)", "setting": "time-course reading M144", "result": 2.117}, {"measurement": "Th-T fluorescence of Aβ42 with compound, mean of three wells (Fig. 7a source data)", "setting": "time-course reading M145", "result": 2.122}, {"measurement": "Th-T fluorescence of Aβ42 (sheet Fig. 7a), mean of three wells", "setting": "head suffix _10 (concentration 10), reading M63", "result": 3.458}, {"measurement": "Th-T fluorescence of Aβ42 (sheet Fig. 7a), mean of three wells", "setting": "head suffix _10 (concentration 10), reading M64", "result": 3.444}, {"measurement": "Th-T fluorescence of Aβ42 (sheet Fig. 7a), mean of three wells", "setting": "head suffix _10 (concentration 10), reading M65", "result": 3.449}, {"measurement": "Th-T fluorescence of Aβ42 (sheet Fig. 7a), mean of three wells", "setting": "head suffix _10 (concentration 10), reading M66", "result": 3.444}, {"measurement": "Th-T fluorescence of Aβ42 (sheet Fig. 7a), mean of three wells", "setting": "head suffix _10 (concentration 10), reading M67", "result": 3.437}, {"measurement": "Th-T fluorescence of Aβ42 (sheet Fig. 7a), mean of three wells", "setting": "head suffix _10 (concentration 10), reading M68", "result": 3.439}, {"measurement": "Th-T fluorescence of Aβ42 (sheet Fig. 7a), mean of three wells", "setting": "head suffix _10 (concentration 10), reading M69", "result": 3.4039}, {"measurement": "Th-T fluorescence of Aβ42 (sheet Fig. 7a), mean of three wells", "setting": "head suffix _10 (concentration 10), reading M70", "result": 3.402}, {"measurement": "Th-T fluorescence of Aβ42 (sheet Fig. 7a), mean of three wells", "setting": "head suffix _10 (concentration 10), reading M71", "result": 3.423}, {"measurement": "Th-T fluorescence of Aβ42 (sheet Fig. 7a), mean of three wells", "setting": "head suffix _10 (concentration 10), reading M72", "result": 3.425}, {"measurement": "Th-T fluorescence of Aβ42 (sheet Fig. 7a), mean of three wells", "setting": "head suffix _10 (concentration 10), reading M73", "result": 3.414}, {"measurement": "Th-T fluorescence of Aβ42 (sheet Fig. 7a), mean of three wells", "setting": "head suffix _10 (concentration 10), reading M74", "result": 3.412}, {"measurement": "Th-T fluorescence of Aβ42 (sheet Fig. 7a), mean of three wells", "setting": "head suffix _10 (concentration 10), reading M75", "result": 3.393}, {"measurement": "Th-T fluorescence of Aβ42 (sheet Fig. 7a), mean of three wells", "setting": "head suffix _10 (concentration 10), reading M76", "result": 3.416}, {"measurement": "Th-T fluorescence of Aβ42 (sheet Fig. 7a), mean of three wells", "setting": "head suffix _10 (concentration 10), reading M77", "result": 3.391}, {"measurement": "Th-T fluorescence of Aβ42 (sheet Fig. 7a), mean of three wells", "setting": "head suffix _10 (concentration 10), reading M78", "result": 3.393}, {"measurement": "Th-T fluorescence of Aβ42 (sheet Fig. 7a), mean of three wells", "setting": "head suffix _10 (concentration 10), reading M79", "result": 3.378}, {"measurement": "Th-T fluorescence of Aβ42 (sheet Fig. 7a), mean of three wells", "setting": "head suffix _10 (concentration 10), reading M80", "result": 3.379}, {"measurement": "Th-T fluorescence of Aβ42 (sheet Fig. 7a), mean of three wells", "setting": "head suffix _10 (concentration 10), reading M81", "result": 3.38}, {"measurement": "Th-T fluorescence of Aβ42 (sheet Fig. 7a), mean of three wells", "setting": "head suffix _10 (concentration 10), reading M82", "result": 3.375}, {"measurement": "Th-T fluorescence of Aβ42 (sheet Fig. 7a), mean of three wells", "setting": "head suffix _10 (concentration 10), reading M83", "result": 3.373}, {"measurement": "Th-T fluorescence of Aβ42 (sheet Fig. 7a), mean of three wells", "setting": "head suffix _10 (concentration 10), reading M84", "result": 3.355}, {"measurement": "Th-T fluorescence of Aβ42 (sheet Fig. 7a), mean of three wells", "setting": "head suffix _20 (concentration 20), reading M63", "result": 3.439}, {"measurement": "Th-T fluorescence of Aβ42 (sheet Fig. 7a), mean of three wells", "setting": "head suffix _20 (concentration 20), reading M64", "result": 3.419}, {"measurement": "Th-T fluorescence of Aβ42 (sheet Fig. 7a), mean of three wells", "setting": "head suffix _20 (concentration 20), reading M65", "result": 3.416}, {"measurement": "Th-T fluorescence of Aβ42 (sheet Fig. 7a), mean of three wells", "setting": "head suffix _20 (concentration 20), reading M66", "result": 3.432}, {"measurement": "Th-T fluorescence of Aβ42 (sheet Fig. 7a), mean of three wells", "setting": "head suffix _20 (concentration 20), reading M67", "result": 3.438}, {"measurement": "Th-T fluorescence of Aβ42 (sheet Fig. 7a), mean of three wells", "setting": "head suffix _20 (concentration 20), reading M68", "result": 3.449}, {"measurement": "Th-T fluorescence of Aβ42 (sheet Fig. 7a), mean of three wells", "setting": "head suffix _20 (concentration 20), reading M69", "result": 3.405}, {"measurement": "Th-T fluorescence of Aβ42 (sheet Fig. 7a), mean of three wells", "setting": "head suffix _20 (concentration 20), reading M70", "result": 3.395}, {"measurement": "Th-T fluorescence of Aβ42 (sheet Fig. 7a), mean of three wells", "setting": "head suffix _20 (concentration 20), reading M71", "result": 3.403}, {"measurement": "Th-T fluorescence of Aβ42 (sheet Fig. 7a), mean of three wells", "setting": "head suffix _20 (concentration 20), reading M72", "result": 3.419}, {"measurement": "Th-T fluorescence of Aβ42 (sheet Fig. 7a), mean of three wells", "setting": "head suffix _20 (concentration 20), reading M73", "result": 3.421}, {"measurement": "Th-T fluorescence of Aβ42 (sheet Fig. 7a), mean of three wells", "setting": "head suffix _20 (concentration 20), reading M74", "result": 3.387}, {"measurement": "Th-T fluorescence of Aβ42 (sheet Fig. 7a), mean of three wells", "setting": "head suffix _20 (concentration 20), reading M75", "result": 3.3567}, {"measurement": "Th-T fluorescence of Aβ42 (sheet Fig. 7a), mean of three wells", "setting": "head suffix _20 (concentration 20), reading M76", "result": 3.391}, {"measurement": "Th-T fluorescence of Aβ42 (sheet Fig. 7a), mean of three wells", "setting": "head suffix _20 (concentration 20), reading M77", "result": 3.3972}, {"measurement": "Th-T fluorescence of Aβ42 (sheet Fig. 7a), mean of three wells", "setting": "head suffix _20 (concentration 20), reading M78", "result": 3.402}, {"measurement": "Th-T fluorescence of Aβ42 (sheet Fig. 7a), mean of three wells", "setting": "head suffix _20 (concentration 20), reading M79", "result": 3.362}, {"measurement": "Th-T fluorescence of Aβ42 (sheet Fig. 7a), mean of three wells", "setting": "head suffix _20 (concentration 20), reading M80", "result": 3.347}, {"measurement": "Th-T fluorescence of Aβ42 (sheet Fig. 7a), mean of three wells", "setting": "head suffix _20 (concentration 20), reading M81", "result": 3.353}, {"measurement": "Th-T fluorescence of Aβ42 (sheet Fig. 7a), mean of three wells", "setting": "head suffix _20 (concentration 20), reading M82", "result": 3.387}, {"measurement": "Th-T fluorescence of Aβ42 (sheet Fig. 7a), mean of three wells", "setting": "head suffix _20 (concentration 20), reading M83", "result": 3.377}, {"measurement": "Th-T fluorescence of Aβ42 (sheet Fig. 7a), mean of three wells", "setting": "head suffix _20 (concentration 20), reading M84", "result": 3.32}, {"measurement": "Th-T fluorescence of Aβ42 (sheet Fig. 7a), mean of three wells", "setting": "head suffix _50 (concentration 50), reading M63", "result": 2.073}, {"measurement": "Th-T fluorescence of Aβ42 (sheet Fig. 7a), mean of three wells", "setting": "head suffix _50 (concentration 50), reading M64", "result": 2.076}, {"measurement": "Th-T fluorescence of Aβ42 (sheet Fig. 7a), mean of three wells", "setting": "head suffix _50 (concentration 50), reading M65", "result": 2.0862}, {"measurement": "Th-T fluorescence of Aβ42 (sheet Fig. 7a), mean of three wells", "setting": "head suffix _50 (concentration 50), reading M66", "result": 2.098}, {"measurement": "Th-T fluorescence of Aβ42 (sheet Fig. 7a), mean of three wells", "setting": "head suffix _50 (concentration 50), reading M67", "result": 2.131}, {"measurement": "Th-T fluorescence of Aβ42 (sheet Fig. 7a), mean of three wells", "setting": "head suffix _50 (concentration 50), reading M68", "result": 2.106}, {"measurement": "Th-T fluorescence of Aβ42 (sheet Fig. 7a), mean of three wells", "setting": "head suffix _50 (concentration 50), reading M69", "result": 2.087}, {"measurement": "Th-T fluorescence of Aβ42 (sheet Fig. 7a), mean of three wells", "setting": "head suffix _50 (concentration 50), reading M70", "result": 2.078}, {"measurement": "Th-T fluorescence of Aβ42 (sheet Fig. 7a), mean of three wells", "setting": "head suffix _50 (concentration 50), reading M71", "result": 2.105}, {"measurement": "Th-T fluorescence of Aβ42 (sheet Fig. 7a), mean of three wells", "setting": "head suffix _50 (concentration 50), reading M72", "result": 2.132}]}]}
